Laboratory results as given in patent US20260297042A1, “BIARYLAMIDE DERIVATIVES AND THEIR USE AS PKMYT1 INHIBITORS” (CANCER RESEARCH TECHNOLOGY LIMITED, priority 2023, published 2026).
Where a name gives a salt, the structure may show the parent alone.

What was measured:
[1] = molecular target: T1, WEE1 (Homo sapiens, UniProt P30291); test: Selectivity versus WEE1 assay (ADP-Glo enzymatic assay); assay type: biochemical; details: for IC50: ADP-Glo; for PKMYT1 vs. WEE1 selectivity: fold difference in selectivity for PKMYT1 over WEE1
T1 construct: purchased Thermo Fisher PR7373A
Summary of the method: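 ADP-Glo luminescent read-out after a 60-min, 26 °C kinase reaction of 15 nM WEE1 with 30 µM ATP, in HEPES pH 7.5 buffer containing MgCl2, EGTA, Brij-35 and 1% DMSO. IC50 accepted only when replicate values agree within 3-fold and curve fit r2 exceeds 0.9.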

[2] = molecular target: T2, Human PKMYT1 (Homo sapiens, UniProt Q99640); test: PKMYT1 biochemical ADP-Glo enzymatic assay; details: ADP-Glo
T2 construct: Human PKMYT1 75-362 was cloned as a TEV cleavable 6xHis fusion; 6xHis (TEV cleavable) (cleaved yes); made in house; host or cells: bacterial cells
T2 sequence (Q99640 75-362): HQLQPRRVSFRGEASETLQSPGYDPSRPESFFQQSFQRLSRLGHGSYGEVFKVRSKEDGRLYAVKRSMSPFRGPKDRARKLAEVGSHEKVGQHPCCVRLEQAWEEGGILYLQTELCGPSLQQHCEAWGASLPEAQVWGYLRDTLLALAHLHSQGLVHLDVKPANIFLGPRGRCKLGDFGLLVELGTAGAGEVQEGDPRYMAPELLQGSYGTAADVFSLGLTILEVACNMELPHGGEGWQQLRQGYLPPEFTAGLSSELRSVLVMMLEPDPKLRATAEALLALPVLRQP
Summary of the method: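 IC50 values come from 10-point 3-fold series, with replicates required within 3-fold and r2 >0.9. ADP formed by PKMYT1 intrinsic ATPase (500 uM ATP, 60 min, 26° C.) was quantified by ADP-Glo luminescence. The enzyme was the TEV-cleaved kinase domain 75-362 at 15 nM, in HEPES pH 7.5 buffer.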

[3] = 15 nM WEE1, 60 minutes at 26° C., banded
[4] = banded, ">N" = at least in this band but could be higher
[5] = 15 nM PKMYT1 kinase domain, 500 µM ATP, 60 minutes at 26° C., banded
[6] = PKMYT1 kinase domain 15 nM, banded values

T1 sequence (P30291 whole entry): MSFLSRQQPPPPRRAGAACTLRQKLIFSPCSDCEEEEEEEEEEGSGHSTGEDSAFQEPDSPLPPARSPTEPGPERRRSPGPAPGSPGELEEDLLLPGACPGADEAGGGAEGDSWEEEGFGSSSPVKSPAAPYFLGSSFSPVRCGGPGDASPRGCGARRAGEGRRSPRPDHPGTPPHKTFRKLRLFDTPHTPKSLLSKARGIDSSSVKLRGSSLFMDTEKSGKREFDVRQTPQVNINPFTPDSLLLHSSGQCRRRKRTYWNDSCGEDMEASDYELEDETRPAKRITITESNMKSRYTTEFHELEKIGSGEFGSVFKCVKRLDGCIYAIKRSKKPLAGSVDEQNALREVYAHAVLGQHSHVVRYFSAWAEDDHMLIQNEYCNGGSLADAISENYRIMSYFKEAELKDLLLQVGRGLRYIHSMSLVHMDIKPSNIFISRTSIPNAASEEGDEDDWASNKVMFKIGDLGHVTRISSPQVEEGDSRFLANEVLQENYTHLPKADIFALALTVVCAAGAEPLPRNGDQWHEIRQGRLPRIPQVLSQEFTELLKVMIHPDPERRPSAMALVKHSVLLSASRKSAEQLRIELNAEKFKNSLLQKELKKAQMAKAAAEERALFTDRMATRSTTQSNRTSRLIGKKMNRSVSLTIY

IC50 [1, 3]	PKMYT1 vs. WEE1 selectivity [1, 4]	IC50 [2, 5]	IC50 ([1]; WEE1 15 nM, banded values)	PKMYT1 vs. WEE1 selectivity ([1]; banded)	IC50 [2, 6]	Structure (SMILES)
> 11000 nM	X (100-<1000 fold)	50 to 1000 nM	–	–	–	Cc1ccc(O)c(C)c1NC(=O)c1cnc(Nc2nn(C)c3cc(Br)ccc23)s1 [BAA-267, 2-((6-bromo-1-methyl-1H-indazol-3-yl)amino)-N-(3-hydroxy-2,6-dimethylphenyl)thiazole-5-carboxamide]
> 11000 nM	>X (100-<1000 fold)	50 to 1000 nM	–	–	–	Cc1ccc(O)c(C)c1NC(=O)c1cnc(NCC2CCN(C(=O)CC(C)(C)O)CC2)s1 [BAA-215, N-(3-hydroxy-2,6-dimethyl-phenyl)-2-[[1-(3-hydroxy-3-methyl-butanoyl)-4-piperidyl]methylamino]thiazole-5-carboxamide]
> 11000 nM	Y (1000-5000 fold)	< 50 nM	–	–	–	Cc1ccc(O)c(C)c1NC(=O)c1cnc(Nc2ccn(CC(=O)NCC(C)(C)O)n2)s1 [BAA-146]
> 11000 nM	Y (1000-5000 fold)	< 50 nM	–	–	–	Cc1ccc(O)c(C)c1NC(=O)c1cnc(Nc2ccn(CC(=O)N3CC[C@H](O)C3)n2)s1 [BAA-162, N-(3-hydroxy-2,6-dimethyl-phenyl)-2-[1-[2-[(3S)-3-hydroxypyrrolidin-1-yl]-2-oxo-ethyl]pyrazol-3-ylamino]thiazole-5-carboxamide]
1000 to 11000 nM	X (100-<1000 fold)	< 50 nM	–	–	–	Cc1cn(-c2cncn2C)nc1Nc1ncc(C(=O)Nc2c(C)ccc(O)c2C)s1 [BAA-387, N-(3-hydroxy-2,6-dimethylphenyl)-2-((4-methyl-1-(1-methyl-1H-imidazol-5-yl)-1H-pyrazol-3-yl)amino)thiazole-5-carboxamide]
> 11000 nM	X (100-<1000 fold)	50 to 1000 nM	–	–	–	Cc1ccc(O)c(C)c1NC(=O)c1cnc(Nc2ccn(CC(=O)N3CCN(C(C)C)CC3)n2)s1 [BAA-178]
> 11000 nM	X (100-<1000 fold)	50 to 1000 nM	–	–	–	COCCn1nc(Nc2ncc(C(=O)Nc3c(C)ccc(O)c3C)s2)cc1C [BAA-255, N-(3-hydroxy-2,6-dimethylphenyl)-2-((1-(2-methoxyethyl)-5-methyl-1H-pyrazol-3-yl)amino)thiazole-5-carboxamide]
> 11000 nM	Y (1000-5000 fold)	50 to 1000 nM	–	–	–	Cc1ccc(O)c(C)c1NC(=O)c1cnc(Nc2ccn(CC(=O)NC(C)C)n2)s1 [BAA-189, N-(3-hydroxy-2,6-dimethyl-phenyl)-2-[[1-[2-(isopropylamino)-2-oxo-ethyl]pyrazol-3-yl]amino]thiazole-5-carboxamide]
> 11000 nM	Y (1000-5000 fold)	< 50 nM	–	–	–	Cc1ccc(O)c(C)c1NC(=O)c1cnc(Nc2cc(Cl)nc(C(F)(F)F)n2)s1 [BAA-287, 2-((6-chloro-2-(trifluoromethyl)pyrimidin-4-yl)amino)-N-(3-hydroxy-2,6-dimethylphenyl)thiazole-5-carboxamide]
> 11000 nM	X (100-<1000 fold)	< 50 nM	–	–	–	Cc1ccc(O)c(C)c1NC(=O)c1cnc(Nc2ccn(CCCC(=O)O)n2)s1 [BAA-058, 4-[3-[[5-[(3-Hydroxy-2,6-dimethyl-phenyl)carbamoyl]thiazol-2-yl]amino]pyrazol-1-yl]butanoic acid]
> 11000 nM	>Y (1000-5000 fold)	50 to 1000 nM	–	–	–	Cc1ccc(O)c(C)c1NC(=O)c1cnc(Nc2ccn([C@@H]3CCN(C(=O)CC(F)(F)F)C3)n2)s1 [BAA-084]
1000 to 11000 nM	W (10-<100 fold)	50 to 1000 nM	–	–	–	Cc1ccc(O)c(C)c1NC(=O)c1cnc(Nc2ccn([C@@H]3CCN(C)C3)n2)s1 [BAA-116, N-(3-Hydroxy-2,6-dimethyl-phenyl)-2-[[1-[(3R)-1-methylpyrrolidin-3-yl]pyrazol-3-yl]amino]thiazole-5-carboxamide]
> 11000 nM	X (100-<1000 fold)	50 to 1000 nM	–	–	–	Cc1ccc(O)c(C)c1NC(=O)c1cnc(Nc2ncco2)s1 [BAA-027, N-(3-hydroxy-2,6-dimethyl-phenyl)-2-(oxazol-2-ylamino)thiazole-5-carboxamide]
–	–	–	> 11000 nM	X (100-<1000 fold)	50 to 1000 nM	CCOC(=O)c1oc(Nc2ncc(C(=O)Nc3c(C)ccc(O)c3C)s2)nc1C [BAA-446, ethyl 2-((5-((3-hydroxy-2,6-dimethylphenyl)carbamoyl)thiazol-2-yl)amino)-4-methyloxazole-5-carboxylate]
> 11000 nM	W (10-<100 fold)	50 to 1000 nM	–	–	–	Cc1ccc(O)c(C)c1NC(=O)c1cnc(Nc2ccn(CC(=O)NCCN3CCCCC3)n2)s1 [BAA-168, N-(3-hydroxy-2,6-dimethyl-phenyl)-2-[[1-[2-oxo-2-[2-(1-piperidyl)ethylamino]ethyl]pyrazol-3-yl]amino]thiazole-5-carboxamide (hydrochloride)]
> 11000 nM	>X (100-<1000 fold)	50 to 1000 nM	–	–	–	Cc1ccc(O)c(C)c1NC(=O)c1cnc(Nc2ccn([C@@H]3CCN(C(=O)CC4CCNCC4)C3)n2)s1 [BAA-107, N-(3-Hydroxy-2,6-dimethyl-phenyl)-2-[[1-[(3R)-1-[2-(4-piperidyl)acetyl]pyrrolidin-3-yl]pyrazol-3-yl]amino]thiazole-5-carboxamide]
–	–	–	> 11000 nM	Y (1000-5000 fold)	50 to 1000 nM	Cc1ccc(O)c(C)c1NC(=O)c1nnc(Nc2ccn(C3CCC3)n2)s1 [BAA-466, 5-((1-cyclobutyl-1H-pyrazol-3-yl)amino)-N-(3-hydroxy-2,6-dimethylphenyl)-1,3,4-thiadiazole-2-carboxamide]
> 11000 nM	X (100-<1000 fold)	< 50 nM	–	–	–	CNC(=O)Cn1ccc(Nc2ncc(C(=O)Nc3c(C)ccc(O)c3C)s2)n1 [BAA-141, N-(3-hydroxy-2,6-dimethyl-phenyl)-2-[[1-[2-(methylamino)-2-oxo-ethyl]pyrazol-3-yl]amino]thiazole-5-carboxamide]
> 11000 nM	>Y (1000-5000 fold)	50 to 1000 nM	–	–	–	Cc1ccc(O)c(C)c1NC(=O)c1cnc(Nc2ccn([C@@H]3CCN(C(=O)Cc4cccnc4)C3)n2)s1 [BAA-102]
> 11000 nM	W (10-<100 fold)	50 to 1000 nM	–	–	–	Cc1ccc(O)c(C)c1NC(=O)c1cnc(Nc2ccnn2CCN)s1 [BAA-260, 2-((1-(2-aminoethyl)-1H-pyrazol-5-yl)amino)-N-(3-hydroxy-2,6-dimethylphenyl)thiazole-5-carboxamide]
> 11000 nM	X (100-<1000 fold)	50 to 1000 nM	–	–	–	Cc1cccc(CNc2ncc(C(=O)Nc3c(C)ccc(O)c3C)s2)c1O [BAA-363, N-(3-hydroxy-2,6-dimethylphenyl)-2-((2-hydroxy-3-methylbenzyl)amino)thiazole-5-carboxamide]
> 11000 nM	X (100-<1000 fold)	50 to 1000 nM	–	–	–	Cc1ccc(O)c(C)c1NC(=O)c1cnc(Nc2nn(-c3ccc(C(F)(F)F)nc3)cc2Cl)s1 [BAA-382, 2-((4-chloro-1-(6-(trifluoromethyl)pyridin-3-yl)-1H-pyrazol-3-yl)amino)-N-(3-hydroxy-2,6-dimethylphenyl) thiazole-5-carboxamide]
> 11000 nM	Z (>5000 fold)	< 50 nM	–	–	–	Cc1ccc(O)c(C)c1NC(=O)c1cnc(Nc2nn(C)c3cccnc23)s1 [BAA-210, N-(3-Hydroxy-2,6-dimethyl-phenyl)-2-[(1-methylpyrazolo[4,3-b]pyridin-3-yl)amino]thiazole-5-carboxamide]
> 11000 nM	X (100-<1000 fold)	50 to 1000 nM	–	–	–	CNc1ncc(C(=O)Nc2c(C)ccc(O)c2C)s1 [BAA-221, N-(3-Hydroxy-2,6-dimethyl-phenyl)-2-(methylamino)thiazole-5-carboxamide]
> 11000 nM	>X (100-<1000 fold)	50 to 1000 nM	–	–	–	CCC(=O)N1CCC(CNc2ncc(C(=O)Nc3c(C)ccc(O)c3C)s2)CC1 [BAA-077, N-(3-hydroxy-2,6-dimethyl-phenyl)-2-[(1-propanoyl-4-piperidyl)methylamino]thiazole-5-carboxamide]
> 11000 nM	X (100-<1000 fold)	50 to 1000 nM	–	–	–	CNC(=O)c1cc(Nc2ncc(C(=O)Nc3c(C)ccc(O)c3C)s2)nn1C [BAA-119, N-(3-hydroxy-2,6-dimethyl-phenyl)-2-[[1-methyl-5-(methylcarbamoyl)pyrazol-3-yl]amino]thiazole-5-carboxamide]
